Experimental data as given in PMC9499987 (Antiviral Research, 2022).

Columns and labels:
HCoV-OC43 = assay: Anti-coronavirus activity assay; type: cell-based; conditions: HCT-8 cells, MOI 0.1, serial dilutions up to 50 μM
SARS-CoV-2 3CL^pro [1] = molecular target: T1, SARS-CoV-2 3CL^pro (Severe acute respiratory syndrome coronavirus 2, UniProt P0DTD1); assay: Microscale thermophoresis; type: binding
SARS-CoV-2 3CL^pro [2] = molecular target: T1, SARS-CoV-2 3CL^pro; assay: cell-based; conditions: EC50 against SARS-CoV-2 3CLpro (BRET ratio)

SMILES: C=C(C)[C@@H]1CC[C@]2(C(=O)O)CC[C@]3(C)[C@H](CC[C@@H]4[C@@]5(C)CC[C@H](OC(=O)CC(C)(C)C(=O)O)C(C)(C)[C@@H]5CC[C@]43C)[C@@H]12 [bevirimat, Bevirimat]
- inhibitory effect on the replication of HCoV-OC43 (HCoV-OC43): did not significantly inhibit
- Kd (SARS-CoV-2 3CL^pro [1]; Kd(M), MST, target 100 nM, ligand 0.0153 μM–500 μM, MST power 40%): 1.05e-05 M
- Kd (SARS-CoV-2 3CL^pro [1]; Kd, MST, labeled 3CLpro 100 nM, 40% MST power): 1.05e-05 M

SMILES: C=C[C@@H]1C[C@]1(NC(=O)[C@@H]1C[C@@H]2CN1C(=O)[C@H](C(C)(C)C)NC(=O)O[C@@H]1C[C@H]1CCCCCc1nc3ccc(OC)cc3nc1O2)C(=O)NS(=O)(=O)C1CC1.O [grazoprevir, Grazoprevir]
- inhibitory effect on the replication of HCoV-OC43 (HCoV-OC43): did not significantly inhibit

SMILES: Cc1c(O)cccc1C(=O)N[C@@H](CSc1ccccc1)[C@H](O)CN1C[C@H]2CCCC[C@H]2C[C@H]1C(=O)NC(C)(C)C [nelfinavir, Nelfinavir]
- Kd (SARS-CoV-2 3CL^pro [1]; Kd): 9.16e-05 M
- Kd (SARS-CoV-2 3CL^pro [1]; Kd(M)): 9.16e-05 M

SMILES: CC(C)(C)NC(=O)[C@@H]1C[C@@H]2CCCC[C@@H]2CN1C[C@@H](O)[C@H](Cc1ccccc1)NC(=O)[C@H](CC(N)=O)NC(=O)c1ccc2ccccc2n1 [saquinavir]
- EC50 (SARS-CoV-2 3CL^pro [2]): 40 µM
